According to article PMC8286641 (European Journal of Drug Metabolism and Pharmacokinetics, 2021):

What was measured:
ENT1 = molecular target: T1, ENT1 (Homo sapiens, UniProt Q99808); assay: Inhibition of ENT1-mediated [3H]-uridine uptake in HAP1 ENT2-KO cells; type: cell-based; conditions: 10 µM TKI
T1 sequence (Q99808 1-456): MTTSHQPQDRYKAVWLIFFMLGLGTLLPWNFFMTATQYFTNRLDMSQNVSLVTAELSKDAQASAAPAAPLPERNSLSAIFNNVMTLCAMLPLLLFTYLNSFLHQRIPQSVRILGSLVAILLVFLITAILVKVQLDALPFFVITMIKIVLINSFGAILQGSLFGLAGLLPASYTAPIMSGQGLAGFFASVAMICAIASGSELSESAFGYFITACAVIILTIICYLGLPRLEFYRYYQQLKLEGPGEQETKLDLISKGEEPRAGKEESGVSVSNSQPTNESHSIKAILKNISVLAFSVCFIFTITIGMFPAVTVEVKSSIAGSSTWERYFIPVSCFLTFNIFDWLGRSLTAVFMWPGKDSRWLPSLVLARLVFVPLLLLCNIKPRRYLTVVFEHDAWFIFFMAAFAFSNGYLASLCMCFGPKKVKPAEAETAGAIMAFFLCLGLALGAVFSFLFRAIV

OCT2 = conditions: read-out: IC50 OCT2; cited from earlier work
MATE1 = conditions: read-out: IC50 MATE1; cited from earlier work
MATE2-K = conditions: read-out: IC50 MATE2-K; cited from earlier work
[1] = system: organic anion transporter (OAT) 3 (SLC22A8); conditions: read-out: IC50 OAT3; cited from earlier work
OCT1 = conditions: cited from earlier work

For `N#CC[C@H](C1CCCC1)n1cc(-c2ncnc3[nH]ccc23)cn1` [Ruxolitinib, ruxolitinib], the “% inhibition of ENT1 activity (mean ± SD)” value (ENT1; HAP1-ENT2 KO cells, [3H]-uridine uptake 5 min at 37 °C) is given as 34.1 ± 13.2 %, the ENT1 inhibitor class (ENT1; HAP1 ENT2-KO cells) is given as “weak (decreased ENT1 activity by less than 35% and can thus be considered as weak ENT1 inhibitors)” and the IC50 (OCT2) is given as under 10 µM. The IC50 (MATE1) was under 10 µM, the IC50 (MATE2-K) was under 10 µM and the IC50 [1] was under 10 µM. For the same compound, the “Effect on OCT1 activity (in words)” value (OCT1) was “fails to alter that of OCT1”.
